Experimental data: patent US20140341916A1, “THERAPEUTIC COMBINATIONS AND METHODS OF TREATING MELANOMA” (Genentech, Inc., priority 2011, published 2014)

How the values were obtained:
ETBR total protein = ETBR total protein in melanoma cell lines, Western blot; assay type: cell-based, human; conditions: 24 h
Procedure: (§1) Melanoma cell lines UACC-257X2.2, A2058, COLO 829, IPC-298 (ATCC) were treated with a BRAF inhibitor drug (“BRAFi”), specifically RG7204 at varying concentrations by adding the appropriate drug volume to cells in culture for 24 h on four-well dishes.
To test whether the increase in ETBR transcripts due to BRAFi treatment also results in any changes in ETBR total protein levels, Western blot experiments were performed on the same cell lines treated with BRAFi RG7204 as described above. For Western blotting, the following reagents were used: for detection of proteins: an anti-ETBR in-house generated monoclonal antibody 1H1.8.5, anti-Phospho-p44/42 MAPK (Erk1/2) (Thr202/Tyr204) antibody (9101, Cell Signaling Technology), anti-p44/42 MAPK (Erk1/2) antibody (9102, Cell Signaling Technology) and as controls, a rabbit polyclonal anti-GAPDH (glyceraldehyde-3-phosphate dehydrogenase) antibody (PA1-987; Affinity Bioreagents) and mouse monoclonal anti-β-Tubulin antibody (556321, BD Pharmingen). The results for UACC-257X2.2 are shown in FIG. 4B, the results for A2058 are shown in FIG. 8B, the results for COLO 829 are shown in FIG. 6B and the results for IPC-298 are shown in FIG. 10.
(§2) Melanoma cell lines A2058, COLO 829, SK23-MEL and IPC-298 (ATCC) were treated with a MEK inhibitor drug (“MEKi-973” or “MEKi-623”), at varying concentrations (0 μM, 0.01 μM, 0.1 μM or 1 μM) by adding the appropriate drug volume to cells in culture for 24 h on four-well dishes.
To test whether the increase in ETBR transcripts due to MEKi treatment also results in any changes in ETBR total protein levels, Western blot experiments were performed on cell lines COLO829 (BRAF^V600E), A2058 (BRAF^V600E), SK23-MEL (BRAF^WT/RAS^WT), or IPC-298 (BRAF^WT/RAS^[…]) which were treated with MEKi-973 as described above. For Western blotting, the following reagents were used: for detection of proteins: an anti-ETBR in-house generated monoclonal antibody 1H1.8.5, anti-Phospho-p44/42 MAPK (Erk1/2) (Thr202/Tyr204) antibody (9101, Cell Signaling Technology), anti-p44/42 MAPK (Erk1/2) antibody (9102, Cell Signaling Technology) and as controls, a rabbit polyclonal anti-GAPDH (glyceraldehyde-3-phosphate dehydrogenase) antibody (PA1-987; Affinity Bioreagents) and mouse monoclonal anti-β-Tubulin antibody (556321, BD Pharmingen). The results for A2058 are shown in FIG. 15A treated with MEKi-623 and 15B treated with MEKi-973, the results for COLO 829 are shown in FIG. 12A treated with MEKi-623 and 12B treated with MEKi-973, the results for SK23-MEL are shown in FIG. 19A treated with MEKi-623 and 19B treated with MEKi-973, and the results for IPC-298 are shown in FIG. 22A treated with MEKi-623 and 22B treated with MEKi-973.

ETBR transcript [1] = test: ETBR transcript level in melanoma cell lines, Taqman, normalized to RPL19; assay type: cell-based, human; conditions: A2058 cells, 24 h
Procedure: as §1
(§3) To determine the effect of BRAFi on ETBR and control ribosomal protein L19 (RPL19) transcript levels, the following experiments were performed. Cells treated with RG7204 for 24 h were harvested from plates by scraping and processed for total RNA using Qiashredder and RNeasy mini kits (79654, 74104 from Qiagen, Valencia, Calif.). Taqman assays were set up using reagents from Applied Biosystems (ABI, Foster City, Calif.) and assayed using 7500 Real Time PCR machine and software from ABI. Primer-probe sets were designed with primers flanking a fluorogenic probe dual labeled with Reporter dye FAM and quencher dye TAMRA.
as §2
as §3, with “MEKi” for “BRAFi”, “ETBR” for “ETBR and control ribosomal protein L19 (RPL19)”, “performed as described above in Example 3.” for “performed.”, “either MEKi-973” for “RG7204”

ETBR surface protein = test: Surface ETBR protein in live melanoma cells, FACS; assay type: cell-based, human; conditions: 24 h
Procedure: as §1
(§4) To determine whether the observed increases in total ETBR protein level due to BRAFi treatment also results in an increase of ETBR surface protein levels, a fluorescence-activated cell sorting (FACS) analysis was performed. Cells were harvested in PBS with 2.5 mmol/L EDTA and washed in PBS buffer containing 1% FBS. All subsequent steps were carried out at 4° C. Cells were incubated for 1 hour with 3 μg/mL anti ETBR antibody Hu5E9v1, followed by anti-human IgG fluorescent detection reagent (A11013; Invitrogen). Cells were then analyzed with a FACS Calibur flow cytometer (BD Biosciences). The results for UACC-257X2.2 are shown in FIG. 4C, the results for A2058 are shown in FIG. 8C, and the results for COLO 829 are shown in FIG. 6C.
as §2
as §4, with “MEKi” for “BRAFi”, “performed as described above.” for “performed.”, “Biosciences).” for “Biosciences). The results for UACC-257X2.2 are shown in FIG. 4C, the results for A2058 are shown in FIG. 8C, and the results for COLO 829 are shown in FIG. 6C.”

ETBR transcript [2] = test: PD study, ETBR transcript in A2058 tumors, Taqman, normalized to Hprt1; assay type: in vivo, mice; conditions: MEKi-973 5 mpk and 10 mpk orally once a day for 3 days
Procedure: A2058 or COLO 829 tumors were grown to an average size of approximately 200 mm^3, whereupon animals were randomized into groups of 5-6 each. For the BRAFi PD study, an appropriate vehicle control (Klucel LF) or RG7204 at doses of 10 mpk or 30 mpk were administered twice a day for 3 days (FIG. 27A). For the MEKi PD study, an appropriate vehicle control or MEKi-973 at doses of 5 mpk and 10 mpk were administered orally once a day for 3 days (FIG. 27B). Flash frozen tumors harvested at end of study were homogenized and processed for RNA and/or protein. Taqman assays were set up using reagents from Applied Biosystems (ABI, Foster City, Calif.) and assayed using 7500 Real Time PCR machine and software from ABI. Primer-probe sets were designed with primers flanking a fluorogenic probe dual labeled with Reporter dye FAM and quencher dye TAMRA. ETBR transcript levels in the tumors were normalized against transcript levels of reference genes such as Hprt1 (hypoxanthine phosphoribosyltransferase 1) or GAPDH (glyceraldehyde 3 phosphate dehydrogenase) using primer and probe sets that were specific to the human homologs of these genes.

O=C(c1ccc(F)c(F)c1Nc1ccc(I)cc1F)N1CC(O)([C@@H]2CCCCN2)C1 [MEKi-973, (S)-(3,4-difluoro-2-((2-fluoro-4-iodophenyl)amino)phenyl)(3-hydroxy-3-(piperidin-2yl)azetidin-1-yl)methanone]
ETBR total protein level vs untreated control cells (ETBR total protein; A2058 cells (BRAF V600E)): appears to increase the ETBR total protein levels | ETBR total protein level vs untreated control cells (ETBR total protein; COLO 829 cells (BRAF V600E)): appears to increase the ETBR total protein levels | ETBR total protein level vs untreated control cells (ETBR total protein; IPC-298 cells (BRAF wild-type, RAS mutant)): appears to increase the ETBR total protein levels | ETBR total protein level vs untreated control cells (ETBR total protein; SK23-MEL cells (BRAF WT/RAS WT)): appears to increase the ETBR total protein levels | ETBR transcript vs untreated control cells (ETBR transcript [1]): appears to increase the ETBR transcripts | surface level of ETBR protein vs untreated control cells (ETBR surface protein; A2058 cells): appears to increase the surface levels of ETBR protein | surface level of ETBR protein vs untreated control cells (ETBR surface protein; COLO 829 cells): appears to increase the surface levels of ETBR protein | surface level of ETBR protein vs untreated control cells (ETBR surface protein; IPC-298 cells): appears to increase the surface levels of ETBR protein | surface level of ETBR protein vs untreated control cells (ETBR surface protein; SK23-MEL cells): appears to increase the surface levels of ETBR protein | ETBR mRNA in tumors vs control vehicle (ETBR transcript [2]): induces ETBR mRNA in vivo
